Data as given in patent US11767313B2, “Compounds as nuclear transport modulators and uses thereof” (XWPHARMA LTD., priority 2018, dated 2023).
Read-outs that look alike come from different tables or passages of the source.

Experiments:
HCT116 = test: Cytotoxicity, cell proliferation assay, HCT116 colon cancer; assay type: cell-based; settings: Table 8
Method: (§1) CellTiter-Glo® Luminescent Cell Viability assay (with Promega CellTiter 96® Luminescent CellTiter-Glo® kit) was used to study the proliferation inhibition by test compounds. Compounds were resuspended in DMSO to make a 25 mM stock suspension. Cells of cancer cell lines or normal tissues were seeded in 96-well plates at 1,500 to 5,000 cells/well overnight. Compounds were 2- or 3-fold diluted serially to obtain 10 concentrations. Then, the drugs were added to the cell wells by Bravo (Agilent) and incubated for 72 hours. The cells were lysed by adding CellTiter-Glo® Reagent (per manufacturer's instructions) and subsequently, the luminescence was read using EnVision® (PerkinElmer).
(§2) The percent of growth was calculated as follows. DMSO-treated cells were employed as vehicle control (High control, HC) and culture medium alone was employed as background (Low control, EC). % growth=100×(Lum sample−Lum EC)/(Lum HC−Lum EC). The ICso was calculated by concentration-response curve fitting using Graphpad Prism.
(§3) The cytotoxicity of test compounds in brain (HCN2), colon cancer (HCT116) and normal colon cell (C8-B4) lines was determined using the cell proliferation assay as described in Example 19.

3T3 = test: Cytotoxicity, cell proliferation assay, 3T3; assay type: cell-based; settings: Mus musculus, NIH3T3; Table 9
Method: as §1, §2
The cytotoxicity of test compounds was also determined in glioblastoma (U87MG)), brain (HCN2) and 3T3 cell lines was determined using the cell proliferation assay as described in Example 19.

3T3-L1 = test: CellTiter-Glo cell proliferation assay, 3T3-L1 (normal); assay type: cell-based; settings: Mus musculus
Method: as §1, §2
(§4) Hematological cancer cell lines tested included OCI-AML3, MV-4-11, KG-1, Kasumi-1, K562, THP-1; solid cancer cell lines tested included U87MG, U251, T98G, LN229, A172, H460, H2009, A549; normal cell lines tested included HCN2 and 3T3-L1. […] However, they were not toxic to in vitro cultured normal cells.

Ratio of brain to plasma = assay type: in vivo; settings: rats, 10 mg/kg PO
Method: Following collection, brain tissue was rinsed with cold saline, dried on filter paper, weighed and snap-frozen by placing on dry ice. All samples were stored frozen at approximately −80° C. until analysis. At the time of analysis, brain tissue was homogenized (homogenizing solution PBS, pH 7.4), mixed with internal standard in acetonitrile, vortexed, centrifuged, and supernatant was injected for analysis. Concentration of compounds in plasma was determined using LC-MS-MS instrumentation (API 4000, Triple Quadrupole LC/MS/MS Mass Spectrometer). Plasma samples were treated with the identical method (except homogenization step) and the concentration of compound in each matrix was calculated based on generated standard curves.

H2009 = test: CellTiter-Glo cell proliferation assay, H2009; assay type: cell-based; settings: Homo sapiens, NCI-H2009, 72 hours, Table 1, read-out: Growth inhibition (IC50)
Method: as §1, §2, §4

C8-B4 = test: Cytotoxicity, cell proliferation assay, C8-B4; assay type: cell-based; settings: Table 8
Method: as §1, §2, §3

U87MG-luc tumor = test: U87MG-luc human glioblastoma orthotopic model; assay type: in vivo; settings: 20 mg/kg orally, 3 times/week, 4 weeks
From the text: Animals: Female BALB/c Nude mice (Supplied by Beijing AniKeeper Biotech Co., Ltd., 6-8 weeks old/18-22 g) were used. General procedures for animal care and using were in accordance with the standard operating procedures (SOPs) of Pharmaron, Inc.
Grouping and Treatments: Grouping and treatment were started on Day 7 post tumor cells inoculation. Mice were imaged to monitor the tumor growth, then mice were randomly assigned to respective groups using a computer-generated randomization procedure. All test articles were administered orally 20 mg/kg with 3 times/week, for 4 weeks post tumor implantations (n=12 per group).
Cell Culture: The Human glioblastoma U87-luc tumor cell line was maintained in vitro as monolayer culture and used for tumor inoculation
Tumor Inoculation and Randomization: 2.5×10^5 luciferase-expressing U87MG-luc tumor cells suspended in 2 μL MEM medium were injected into the right forebrain by positioning the needle at AP: 2.0 mm, ML: 0.5-1.0 mm, DV: 3.0 mm from bregma. The injection was slowly proceeding over a one-minute period. Upon completing injection, the needle was retained for another minute. Measurement Parameters: Tumor growth (monitored by image analysis), body weight and survival days were recorded.
Termination Criterion: Individual animal was humanely sacrificed by carbon dioxide when body weight loss >20% and animals could not get to adequate food or water.
Statistical Analysis: Data was recorded as means±standard error of the mean for all measurement parameters as study designed. All statistical tests were conducted by SPSS 17.0 statistical software, and the level of significance is set at p<0.05.

CRM1 = biological target: T1, CRM1 (Homo sapiens, UniProt O14980); test: PD effects by IHC in U87MG-luc orthotopic model, CRM1; assay type: in vivo, mice; settings: orally three times a week for 2 weeks; vs vehicle control
T1 construct: from tissue; host or cells: U87MG-luc orthotopic xenograft tumours in mouse brain
Method: Based on the bioluminescent signal of tumor, mice were randomly assigned to respective groups using a computer-generated randomization procedure, which included vehicle and compound III-treated groups, respectively, with 5 animals per group. Compound III (20 mg/kg) was given orally 3 times a week (on Day 1, 3, 5) for 2 weeks. Animals for IHC study were euthanized at 6 hours after the last dose and perfused with normal saline followed by fixation with 4% paraformaldehyde. Entire brains containing tumors were collected and kept in fixative for 24 hours before proceeding for paraffin block.

T1 sequence (O14980 whole entry): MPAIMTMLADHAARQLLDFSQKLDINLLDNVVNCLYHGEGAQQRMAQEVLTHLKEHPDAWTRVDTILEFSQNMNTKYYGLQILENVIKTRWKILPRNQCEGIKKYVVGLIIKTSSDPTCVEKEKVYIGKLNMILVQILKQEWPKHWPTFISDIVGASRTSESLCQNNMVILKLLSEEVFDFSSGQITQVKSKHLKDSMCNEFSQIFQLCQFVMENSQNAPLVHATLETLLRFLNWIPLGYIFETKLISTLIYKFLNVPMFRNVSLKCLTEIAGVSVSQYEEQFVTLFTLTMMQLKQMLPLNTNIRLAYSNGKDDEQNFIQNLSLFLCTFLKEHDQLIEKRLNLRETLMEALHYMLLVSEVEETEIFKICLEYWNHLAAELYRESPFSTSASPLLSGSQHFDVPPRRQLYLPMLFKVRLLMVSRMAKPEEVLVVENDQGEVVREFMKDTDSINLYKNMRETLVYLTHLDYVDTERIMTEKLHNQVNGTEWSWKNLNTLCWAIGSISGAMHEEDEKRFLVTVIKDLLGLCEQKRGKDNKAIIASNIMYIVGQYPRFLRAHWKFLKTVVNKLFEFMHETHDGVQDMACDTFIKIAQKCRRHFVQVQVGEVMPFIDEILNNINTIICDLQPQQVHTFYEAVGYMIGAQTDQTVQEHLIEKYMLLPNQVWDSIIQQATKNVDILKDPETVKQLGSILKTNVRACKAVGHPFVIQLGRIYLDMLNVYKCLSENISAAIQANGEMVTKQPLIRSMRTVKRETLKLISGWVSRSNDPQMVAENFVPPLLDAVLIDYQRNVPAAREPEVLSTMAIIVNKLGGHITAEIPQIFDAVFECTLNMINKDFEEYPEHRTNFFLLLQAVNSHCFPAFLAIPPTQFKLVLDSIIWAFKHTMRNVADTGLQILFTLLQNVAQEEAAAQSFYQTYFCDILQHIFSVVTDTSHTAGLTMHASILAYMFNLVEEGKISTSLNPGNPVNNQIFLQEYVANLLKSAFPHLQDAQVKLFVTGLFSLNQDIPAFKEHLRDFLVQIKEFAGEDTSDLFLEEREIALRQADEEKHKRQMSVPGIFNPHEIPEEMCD

## O=C(/C=C\n1cnc(-c2cc(C(F)(F)F)cc(S(F)(F)(F)(F)F)c2)n1)NNc1cnccn1 [Compound I, (Z)-3-(3-(3-(pentafluorosulfanyl)-5-(trifluoromethyl)phenyl)-1H-1,2,4-triazol-1-yl)-N′-(pyrazin-2-yl)acrylohydrazide]
HCT116; Homo sapiens, HCT-116
  IC50: 5.96 µM
HCT116
  HCT116 Max % inh: 88%
3T3
  IC50: > 50 µM
3T3-L1; 3T3-L1, Table 6, read-out: 3T3-L1 IC50
  IC50: > 50 µM
3T3-L1; 3T3-L1 normal cell line, 72 hours, Table 1, read-out: Growth inhibition (IC50)
  IC50: > 50 µM
Ratio of brain to plasma; rat, brain/plasma, 0.25 h
  Kp at 0.25 h: 0.386
Ratio of brain to plasma; rat, brain/plasma, 1 h
  Kp at 1 h: 0.707
Ratio of brain to plasma; rat, brain/plasma, 8 h
  Kp at 8 h: 0.782
Ratio of brain to plasma; 0.25 h
  brain concentration (second number of pair): 319 ng/g
  plasma concentration (first number of pair): 810 ng/g
Ratio of brain to plasma; 1 h
  brain concentration (second number of pair): 1301 ng/g
  plasma concentration (first number of pair): 1887 ng/g
Ratio of brain to plasma; 8 h
  brain concentration (second number of pair): 194 ng/g
  plasma concentration (first number of pair): 252 ng/g
H2009
  IC50: 0.521 µM
C8-B4; C8-B4
  IC50: 4.3 µM
C8-B4
  C8-B4 Max % inh: 91%

## CC(C)(C)C(=O)NNC(=O)/C=C\n1cnc(-c2cc(C(F)(F)F)cc(S(F)(F)(F)(F)F)c2)n1 [Compound III, (Z)-3-(3-(3-(Pentafluorosulfanyl)-5-(trifluoromethyl)phenyl)-1H-1,2,4-triazol-1-yl)-N′-pivaloylacrylohydrazide]
U87MG-luc tumor
  bodyweight loss (individual animal): less than 10%
  medium survival time (MST): 47 days
  tolerability: well tolerated by most animals
U87MG-luc tumor; end of treatment period
  reduction in bioluminescence signal compared with the vehicle control group: 99%
CRM1
  expression of CRM1 in tumors (IHC): significantly decreased
